According to patent publication US12527869B2, “Stable microspheres, method off abrication and use thereof” (B. G. NEGEV TECHNOLOGIES AND APPLICATIONS LTD., AT …, priority 2018, dated 2026):
Converted amounts (≈) assume the structure as drawn.

Tests used:
[1] = cited from earlier work
[2] = cited from earlier work; for Ostwald coefficient (×10^6): gas solubility
[3] = In vitro cavitation measurement by passive cavitation detection (PCD); details: C3F8; 499 KPa; about 6×10^7 MBs or 350 μl free gas
Description: Lyophilized microbubbles prepared as described in Example 1 herein were weighed and inserted into a headspace vial, and the vial was sealed by a screw cap with 1.3 mm silicone septum. Empty 50 ml syringe, 10 ml syringe filled with the desired gas and a 27 G needle, were connected to a 3 ways stopcock. The air inside the vail was drawn using the 50 ml syringe to form a vacuum, then the desired gas in the 10 ml syringe was injected into the vial. The MBs were dispersed with the desired volume (3 ml-7 ml) of degassed water, which was injected with an additional syringe and needle (23 G) through the septum cap, to prevent gas leakage. […]
Acoustic absorbing material (E in FIG. 8) was located at the top of the chamber to prevent ultrasound reflection, and a receiver (hydrophone manufactured by InSightec) was placed at an angle of […] to the direction of wave propagation (F in FIG. 8). […] These variations were recorded by the same digital pico-oscilloscope, and the data was analyzed using MATLAB software. […]
Between measurements, it was necessary to degas the water in the system to ensure that the measured cavitation was caused by the activity of microbubbles examined in the specific experiment, and not as a result of existing gas bubbles in water, or microbubbles from a previous experiment, which remained in the system. […]
The data were analyzed using MATLAB software. […]

| SMILES | water solubility [1] [mg/mL] | Ostwald coefficient (×10^6) [2] | Diffusivity coefficient in water [2] | cavitation dose (CD) by inner core structure, compared with hollow single-core microbubbles [3] |
| --- | --- | --- | --- | --- |
| ClCCl [DCM, dichloromethane] | 20 (≈ 235 mM) | – | – | – |
| CCOC(C)=O [ethyl acetate] | 90 | – | – | – |
| FS(F)(F)(F)(F)F [SF6, sulfur hexafluoride] | – | 5400 ×10^6 | 12 m^2s^−1 (×10^10) | – |
| FC(F)(F)C(F)(F)C(F)(F)F [Synthesis C3F8, perfluoropropane] | – | 520 ×10^6 | 7.45 m^2s^−1 (×10^10) | very low |
| FC(F)(F)C(F)(F)C(F)(F)C(F)(F)F [Synthesis C4F10, perfluorobutane] | – | 202 ×10^6 | 6.9 m^2s^−1 (×10^10) | – |
